Like-named read-outs stand apart in the source and are kept apart here. A value given as a limit tells only on which side of the number the result lay.

Data set [1] concerns NFκB. The data set is described as follows: NFκB inhibition assay (2 h), NFκB-dependent nanoluc luciferase reporter. To be noted: Homo sapiens; NFκB-MDA-MB-231-nanoluc cells, 2-h treatment, mean ± SD; read-out: NFκB Inhibition 2 h IC50. Format: cell-based, human. The procedure:
Experiments were performed according to the published protocol. On day 1, 4 × 10^4 NFκB-MDA-MB-231-nanoluc cells were seeded into white 96 well plates (Greiner; #655098). On day 2, the medium was replaced with starvation medium and the cells were pre-incubated for 20 min with either 100 µL of DMSO (Roth; #A994.1) alone at a concentration of maximal 0.1% or with the final concentration of the diluted compounds (Table 3). To activate NFκB signaling, cells were stimulated with 1 µg/mL LPS (Sigma-Aldrich; #L2630) beforehand. NFκB-dependent luciferase activity was measured according to the manufacturer`s protocol for the Nano-Glo Luciferase Assay System (Promega, Mannheim, Germany; #N1110). NFκB-dependent luminescence was determined as relative light units (RLU) using the microplate reader Spark® (Tecan, Männedorf, Switzerland).

The subject of data set [2] is MDA-MB-468-UnaG. The data set is described as follows: 2D cell viability in MDA-MB-468-UnaG under normoxia or CoCl2-simulated hypoxia.
The subject of data set [3] is NFκB. The data set is described as follows: NFκB inhibition assay (24 h), NFκB-dependent firefly luciferase reporter. Type of data set: cell-based. To be noted: Homo sapiens; NFκB-MDA-MB-231-firefly cells, 24-h treatment, 20 ng/mL TNFα, mean ± SD; read-out: NFκB Inhibition 24 h IC50. As for the experimental part:
On day 1, 3 × 10^4 NFκB MDA-MB-231-firefly cells were seeded into white 96 well plates (Greiner; #655098). On day 2, the medium was replaced with starvation medium and the cells were pre-incubated for 20 min with either 100 µL of DMSO (Roth; #A994.1) alone at maximal 0.1%, or with the final concentration of the diluted compounds (Table 3). To activate NFκB signaling, cells were stimulated with 20 ng/mL TNFα (Peprotech, Hamburg, Germany; #300-01A). Cell lysis was performed in 20 µL 1× cell lysis buffer according to the manufacturer’s instruction for the Luciferase Assay System (Promega #E1500). NFκB-dependent luminescence was determined as relative light units (RLU) using the microplate reader Spark® (Tecan).

Data set [4] concerns MDA-MB-468-UnaG. The data set is described as follows: Cell cycle studies (PI-DNA flow cytometry) in MDA-MB-468-UnaG. To be noted: normoxia. Format: cell-based. As for the experimental part:
To investigate cell cycle progression in the presence of compound (1s) or paclitaxel (Santa Cruz Biotechnology; #sc-201439), we quantified the DNA content in the cell. On day 1, the cells were seeded in 1 mL into a 24 well plate (Greiner; #662160). On day 2, MDA-MB-468-UnaG were pre-treated either without (normoxia) or with 100 µM CoCl2 (hypoxia) (Sigma-Aldrich; #C8661) for 24 h before compounds were applied. On day 2 for MDA-MB-231 or on day 3 for MDA-MB-468-UnaG, paclitaxel was applied at the concentrations 15 nM, 37 nM, and 100 nM, and compound (1s) was applied at concentrations ranging from 2 nM to 1000 nM. Post-treatment cells were washed in 1× PBS (Thermo Fisher Scientific; #14190); fixed in 70% (v/v) ethanol overnight at 4 °C; washed again in 1× PBS; and, finally, DNA was stained for 15 min at 37 °C in the presence of 10 µg/mL propium iodide (PI; Sigma-Aldrich; #4864) and 100 µg/mL RNase A (Thermo Fisher Scientific; #EN0531) dissolved in 0.1% triton™ X-100 (Sigma-Aldrich; #X100), dissolved in PBS. The fluorescence signal resulting from PI-DNA complex formation was recorded using the flow cytometer CytoFlex (Beckmann Coulter, Krefeld, Germany). The cell cycle phase population was determined based on the DNA content in a set of chromosomes (n) in a cell using the integrated software CytExpert (Beckmann Coulter): sub-G0/G1 (<2n), G0/G1 (2n), S (>2n, <4n), G2/M (4n) or hyperploid cells (>4n) (see Figure S10).

The next data set concerns MDA-MB-231. The data set is described as follows: 2D cell viability (PrestoBlue resazurin) in MDA-MB-231. Type of data set: cell-based, human. To be noted: Homo sapiens. As for the experimental part: Cell viability was determined based on resazurin-reduction in viable cells according to the PrestoBlue^TM Assay. On day 1, MDA-MB-231 (1.5 × 10^4 cells per well or 7.5 × 10^3 cells per well) were seeded into black 96 well plates (Greiner; #655090) in a total volume of 100 µL. On day 2, the compounds or DMSO (Roth; #A994.1) alone at maximal 0.1% were applied (final concentrations after serial dilution shown in Table 3). An amount of 20 µM staurosporine (Sigma-Aldrich; #S5921) served as a positive control. On day 3, the PrestoBlue^TM reagent (Invitrogen^TM, Darmstadt, Germany; #A13262) was applied according to the manufacturer`s instructions. Finally, cell viability-dependent fluorescence was recorded in relative fluorescence units (RFU) with excitation/emission (Exλ/Emλ) at 535/590 nm or 560/590 nm, using the microplate reader Spark® (Tecan).

The subject of data set [5] is 3D co-culture spheroids of MDA-MB-231 and primary murine CAFs. The data set is described as follows: 3D cell viability (ATP content) in TNBC co-culture spheroids. Type of data set: cell-based, human MDA-MB-231. As to conditions: Mus musculus, MDA-MB-231. The procedure:
On day 1, 3000 cells were seeded into a low-attachment 96 well plate (Greiner; #650970). […] Cell viability was determined based on the ATP content in viable cells according to the manufacturer`s instructions (Promega #G9682). Co-culture spheroids were generated for 72 h before they were grown for another 72 h with or without exposure to the compounds. […] Cell viability-dependent luminescence was determined as relative light units (RLU) using the microplate reader Spark® (Tecan).

Data set [6] shares this test system. The data set is described as follows: 3D growth studies, spheroid size of co-culture spheroids. Format: cell-based, human MDA-MB-231. As to conditions: 100 nM, 72 h. The procedure: To emulate the TNBC microenvironment, 3D spheroids composed of MDA-MB-231 and CAFs at a ratio of 1:2 in a collagen-based matrix were generated. The culture medium of both cell lines was mixed (DMEM:RPMI 1640 (1:1) + 12.5% FCS + 1% PS) and supplemented with 0.05 mg/mL collagen type I (Thermo Fisher Scientific; #A1048301). On day 1, 3000 cells were seeded into a low-attachment 96 well plate (Greiner; #650970). Spheroids were grown for 72 h before proceeding with compound treatment on day 4, and analysis on day 7 according to the “Spheroid immunostaining”, “3D cell viability”, or “3D growth” studies presented in the results section.
Co-culture spheroids were generated for 72 h before they were exposed to either DMSO (Roth; #A994.1) alone at maximal 0.1%, 100 nM paclitaxel (Santa Cruz Biotechnology; #sc-201439), or 100 nM of compound (1) for another 72 h. At least three spheroids per treatment group were analyzed. For that purpose, brightfield images of the spheroids were acquired at 100× g magnification using the microscope Axio Vert.A1 (Zeiss). The spheroid surface area was quantified in brightfield images using Fiji (open-source software; version 1.52i) and was further defined as spheroid size. In each individual experiment spheroid size was normalized to the smallest (which was set to 0%) and to the largest spheroids (which was set to 100%).

For `CC(=O)O[C@H]1C(=O)[C@@]2(C)[C@H]([C@H](OC(=O)c3ccccc3)[C@]3(O)C[C@H](OC(=O)[C@H](O)[C@@H](NC(=O)c4ccccc4)c4ccccc4)C(C)=C1C3(C)C)[C@]1(OC(C)=O)CO[C@@H]1C[C@@H]2O` [Paclitaxel, paclitaxel, reference compound], the IC50 in the data set on NFκB [1] is more than 1000 nM; in the data set on MDA-MB-468-UnaG [2] (24 h, read-out: cell viability IC50, hypoxia), more than 1000 nM; in the data set on MDA-MB-468-UnaG [2] (read-out: cell viability IC50, normoxia), 7.7 nM; in the data set on NFκB [3], more than 1000 nM; in the data set with MDA-MB-231 (MDA-MB-231 2D monolayer, 24 h post-treatment, mean ± SD, read-out: Reduction of Cell Viability 24 h IC50), 37.4 ± 8.6 nM; with MDA-MB-231 (MDA-MB-231, 24 h, one individual experiment (Figure S3a), read-out: IC50 of representative dose-response, 2D cell viability), 36.9 nM. The IC50 in data set [5] (3D co-culture spheroids, 72 h treatment, mean ± SD (n = 3), read-out: Reduction of Cell Viability 72 h IC50) was 43 ± 14.3 nM; in data set [5] (co-culture spheroids, 72 h, one individual experiment (Figure S3b), read-out: IC50 of representative dose-response, 3D cell viability), 42.8 nM. The “decrease of cytotoxic effects by hypoxia (factor)” value in the data set on MDA-MB-468-UnaG [2] (hypoxia vs normoxia, MDA-MB-468-UnaG) is listed as not below 100. Besides, the “sub-G0/G1 population” value in the data set with MDA-MB-468-UnaG [4] (48 h) is “increase in the sub-G0/G1 population”. In the data set with MDA-MB-468-UnaG [4] ((1s) 20 nM 72 h, paclitaxel within 24 h), the “cell cycle phase population” value was “significantly induces a G2/M arrest”. Also, in data set [6], the “reduction of spheroid growth compared to untreated spheroids” value is reported as 25%.

Values taken from paper PMC9499467, “Phenanthroindolizidine Alkaloids Isolated from Tylophora ovata as Potent Inhibitors of Inflammation, Spheroid Growth, and Invasion of Triple-Negative Breast Cancer” (International Journal of Molecular Sciences, 2022).
